Experimental data from publication PMC11661381, “Covalent-fragment screening identifies selective inhibitors of multiple Staphylococcus aureus serine hydrolases important for growth and biofilm formation” (Research Square, 2024).

What was measured:
Escherichia coli = assay: Bacterial growth inhibition assay, E. coli; type: cell-based
[1] = system: Fph enzymes in live S. aureus cells (USA300); assay: Competition of FP-alkyne labeling in live S. aureus cells; type: cell-based, Staphylococcus aureus
Method: (§1) One colony of each of S. aureus wild-type and transposon mutants fphB::Tn, fphE::Tn and fphH::Tn picked from growth on a Tryptic soya agar plate were inoculated in 5 mL of Tryptic soya broth (TSB). The overnight bacterial cultures were spun down at 5,000 g for 10 min and pellet was collected. The pellets were washed twice in 1X PBS buffer and resuspended in the same buffer. Cells were first preincubated with the indicated concentrations of inhibitors for 2hr at 37°C. The cells were washed twice with 1X PBS buffer. The resuspended pellets were incubated with Fluorophosphonate-alkyne (FP-alkyne) for 30 min at 37°C. Cells were washed again twice with 1X PBS buffer and resuspended in with 1X PBS and 0.1% Triton–X and lysed by beat beating at 4°C. Next, lysed cells (20 μL) were mixed with 2.16 μL of freshly prepared click mix (0.5 μL of 50 mM CuSO4 in H2O, 1.16 μL of 100 mM BTTAA in DMSO, and 0.5 μL of N3-Cy5 in DMSO) and 1.16 μL of 300 mM sodium ascorbate solution in H2O and incubated at 37 °C for 30 min. Next step, 20 μL of 4X SDS loading buffer was added in each sample and boiled at 100 °C for 10 min. The processed samples were allowed to cool and analyzed by SDS-PAGE (12%) running at 120 V in an electrophoresis chamber. Cy5 fluorescence was imaged using the Cy5 channel on a Typhoon 9410 Imager (Amersham Biosciences).

[2] = system: S. aureus biofilm formation; assay: Crystal violet biofilm inhibition assay; type: cell-based, Staphylococcus aureus; details: for effect on biofilm formation (in words): wild type S. aureus, 1–100 μM
Method: Overnight cultures of S. aureus (wild-type, transposon mutants and complemented) strains (Table S3) grown in TSB, were subcultured on fresh TSB and grown to OD600 of 0.5. Biofilms were cultured in 96 well plates by transferring 1 μL of the culture to 200 μL of TSB plus 1% glucose with or without the inhibitors and incubated for 16 hours at 37°C without agitation. The inhibitor concentrations ranged from 1, 5, 10, 50 and 100 μM final concentration. Equal volume of DMSO was added as control. The wells were washed to remove the planktonic cells and the plates air-dried before staining with 200μL of 0.1% w/v crystal violet for 10 minutes at room temperature. The wells were washed to remove excess dye and blotted to dry. Each well was filled with 200μL of DMSO for 10 minutes at room temperature to dissolve the dye. The absorbance was measured at 590 nm using Spark multimode microplate reader (TECAN). The data represents n = 3 independent experiments and are expressed as a percentage of the uninhibited wild-type bacteria. All the data are normalized such that 100% represent untreated WT S. aureus. P values were determined using ordinary one-way ANOVA multiple comparisons GraphPad Prism 10.0 software. *P < 0.05, **P < 0.01, ***P < 0.001 and ****P < 0.0001.

[3] = Cytotoxicity assay (CellTiter-Blue); type: cell-based; details: human; HEK293 cells, 48hr of incubation
rFphH = target: T1, rFphH (Staphylococcus aureus, UniProt A0A0H2XJL0); assay: FP-Cy5 active site labeling of recombinant protein, rFphH; type: binding; details: 500 nM rFphH
T1 construct: otherwise full-length FphE (Uniprot ID Q2FDS6) and FphH (A0A0H2XJL0) proteins; His6 (3C-cleavable, pETNKI-his-3C-LIC vector) (N); made in house; E. coli is inferred from the pET28a-type vector, IPTG induction and LB/kanamycin
T1 sequence (A0A0H2XJL0 1-246): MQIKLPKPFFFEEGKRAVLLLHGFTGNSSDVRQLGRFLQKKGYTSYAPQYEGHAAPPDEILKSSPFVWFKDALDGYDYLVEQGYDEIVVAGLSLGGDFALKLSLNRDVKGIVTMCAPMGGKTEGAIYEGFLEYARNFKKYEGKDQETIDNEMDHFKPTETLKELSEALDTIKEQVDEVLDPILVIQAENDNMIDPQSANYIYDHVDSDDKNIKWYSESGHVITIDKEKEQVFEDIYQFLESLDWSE
Method: (§2) For activity-based protein labeling experiments, 500 nM of rFphB, rFphE and rFphH in 1X PBS and 0.1% Triton–X were preincubated with different concentrations of inhibitors or DMSO for 2hr at room temperature, followed by adding 300 nM of fluorophosphonate (FP) alkyne and incubated for 30 min at room temperature. Next, 20 μL of the reaction volume were mixed with 2.16 μL of freshly prepared click mix (0.5 μL of 50 mM CuSO4 in H2O, 1.16 μL of 100 mM BTTAA in DMSO, and 0.5 μL of N3-Cy5 in DMSO) and 1.16 μL of 300 mM sodium ascorbate solution in H2O. Samples were incubated at 37°C for 30 min, boiled in SDS loading buffer and analyzed by SDS–PAGE. Cy5 fluorescence was imaged using the Cy5 channel on a Typhoon 9410 Imager (Amersham Biosciences).

S. epidermidis = assay: Bacterial growth inhibition assay, S. epidermidis; type: cell-based, Staphylococcus epidermidis
Method: (§3) Bacteria were streaked from glycerol stocks onto agar plates and grown overnight at 37°C. A single colony was inoculated in either Tryptic Soy Broth (TSB; Sigma-Aldrich, St. Louis, MO; used for most species) or Bacto Brain Heart Infusion (BHI; Becton, Dickinson, and Company, Franklin Lakes, NJ; used for L. monocytogenes and S. pyogenes) and grown at 37°C shaking until mid-exponential phase (OD600 = 0.5), then diluted 1:10 in cation-adjusted Mueller Hinton Broth (MHB2, Millipore Sigma, Bedford, MA; used for most species) or BHI (for L. monocytogenes and S. pyogenes). 15 μl of this dilution was added to 135 μl of MHB2 or BHI in a flat-bottom clear 96-well plate for a starting inoculum of ~ 5 × 10^5 CFU/ml.
(§4) For bacterial growth inhibition assay, wild-type S. aureus and transposon mutants (fphB::Tn, fphE::Tn and fphH::Tn) were grown with compounds at final concentrations ranging from 1–100 μM and compared to growth in media with an equivalent percentage of DMSO. […] All growth curves were repeated at least twice and analyzed in GraphPad Prism 10.0 software. […] The cultures were incubated overnight at 37°C, 5% CO2 before their optical density was read. The EC50 of the antibiotics against the bacteria in the presence or absence of N34 were determined by fitting the normalized data into a four-parameter logistic model in GraphPad Prism 10.0 software.

Streptococcus pyogenes = assay: Bacterial growth inhibition assay, S. pyogenes; type: cell-based
Method: as §3, §4

[4] = system: S. aureus wild type and fph transposon mutants; assay: Bacterial growth inhibition assay, S. aureus; type: cell-based, Staphylococcus aureus; details: 1–100 μM
Method: as §3
(§5) For bacterial growth inhibition assay, wild-type S. aureus and transposon mutants (fphB::Tn, fphE::Tn and fphH::Tn) were grown with compounds at final concentrations ranging from 1–100 μM and compared to growth in media with an equivalent percentage of DMSO. Each condition was plated as technical duplicates. The plate was incubated at 37°C with shaking every 15 minutes followed by measurement of OD600 for 14 hr. All growth curves were repeated at least twice and analyzed in GraphPad Prism 10.0 software. For bacterial resistance analysis, overnight culture of S. aureus Newman was diluted to an OD600 of 0.01 in MHB. This was followed by pretreatment with 20 μM N34 or equivalent DMSO volume as control. The pretreatment was allowed to proceed for 3 hr before initiating treatment with different concentrations of the test antibiotics (Table S5). The cultures were incubated overnight at 37°C, 5% CO2 before their optical density was read. The EC50 of the antibiotics against the bacteria in the presence or absence of N34 were determined by fitting the normalized data into a four-parameter logistic model in GraphPad Prism 10.0 software.

Pseudomonas aeruginosa = assay: Bacterial growth inhibition assay, P. aeruginosa; type: cell-based
Method: as §3, §4

S. aureus Newman = assay: Antibiotic susceptibility after N34 pretreatment; type: cell-based, Staphylococcus aureus; details: 20 μM N34 pretreatment, then antibiotics; Table S5
Method: The strong antibiofilm activity of the boronic acid compounds argues for their possible use in combination therapy with antibiotics to treat staphylococcal infections. Therefore, we wanted to test if the N34 treatment impacts the susceptibility profile of the S. aureus to antibiotics. To test this, we pretreated bacteria with a sub-inhibitory concentration of N34 (20 μM) for 2 hours at 37°C followed by treatment with selected antibiotics.
as §5, with “This was followed by pretreatment with 20 μM N34 or equivalent DMSO volume as control. The pretreatment was allowed to proceed for 3 hr before initiating treatment with different concentrations of the test antibiotics (Table S5).” left out

[5] = target: T2, Fph enzymes in live S. aureus cells (USA300) (Staphylococcus aureus, UniProt A0A0H2XJG5); assay: Competition of FP-alkyne labeling in live S. aureus cells; type: cell-based; details: live cells, increasing concentrations, 120 min
T2 construct: endogenous in cells; host or cells: live S. aureus USA300 (LAC) wild-type cells
T2 sequence (A0A0H2XJG5 1-322): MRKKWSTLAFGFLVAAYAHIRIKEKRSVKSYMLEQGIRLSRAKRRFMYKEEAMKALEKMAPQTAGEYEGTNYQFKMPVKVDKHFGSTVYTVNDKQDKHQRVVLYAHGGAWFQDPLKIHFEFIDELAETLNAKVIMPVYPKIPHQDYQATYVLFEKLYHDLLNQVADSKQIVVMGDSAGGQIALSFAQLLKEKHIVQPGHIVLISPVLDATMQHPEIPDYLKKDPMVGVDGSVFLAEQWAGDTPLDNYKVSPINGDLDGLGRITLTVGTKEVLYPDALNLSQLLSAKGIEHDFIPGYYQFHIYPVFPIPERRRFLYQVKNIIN
Method: as §1

rFphB [6] = target: T3, rFphB (Staphylococcus aureus, UniProt A0A0H2XJG5); assay: FP-Cy5 active site labeling competition of recombinant protein, rFphB; type: binding
T3 construct: made in house
T3 sequence (A0A0H2XJG5 1-322): T2 sequence (A0A0H2XJG5 1-322)
Method: as §2

HEK293 cells = assay: Cytotoxicity assay (CellTiter-Blue); type: cell-based; details: mammalian cells
rFphB [7] = target: T3, rFphB; assay: Intact protein LC-MS of rFphB with inhibitor; type: binding; details: rFphB:X20 1:10
Method: Next, 10 μL of the labeled sample was injected and analyzed by LC-MS. For LC-MS conditions, 95% solvent A (0.1% formic acid in LC-MS grade water), 5% solvent B (0.1% formic acid in LC-MS grade acetonitrile) at 0.6 mL/min was used for 2 min to remove excess of salts into waste before a linear 6-minute gradient from 80% solvent A (20% solvent B) to 20% solvent A (80% solvent B), followed by a one-minute 95% solvent A (5% solvent B). Protein labeling efficiency was quantified by UV. The acquired mass of protein was deconvoluted using the deconvolution software in Agilent Bioanalysis Software package.

Row | Compound | growth defect (in words) (Escherichia coli) | competition of FP labeling in live cells (in words) ([1]; 100 μM compound, live S. aureus cells) | concentration giving partial inhibition of FphE and other lower molecular weight Fph proteins ([1]; live cells, doses 5–100 μM, 120 min preincubation) [µM] | effect on biofilm formation in transposon mutants (in words) ([2]; fphH or fphE transposon mutant) | effect on biofilm formation (in words) [2] | CC50 at 48 h [3] [µM] | competition of FP-Cy5 labeling of rFphH (in words) (rFphH) | growth inhibition (in words) (S. epidermidis) | growth inhibition (in words) (Streptococcus pyogenes) | effect on S. aureus growth (in words) [4] | growth defect (in words) (Pseudomonas aeruginosa) | impact of N34 pretreatment on antibiotic susceptibility (in words) (S. aureus Newman) | competition of FP-alkyne labeling of native FphB (in words) [5] | competition of FP-Cy5 labeling of rFphB (in words) (rFphB [6]) | reduction of biofilms ([2]; WT cells, highest concentrations) [%] | reduction of biofilms ([2]; fphB mutant) [%] | off-target effects in mammalian cells (in words) (HEK293 cells) | adduct formation on rFphB (in words) (rFphB [7])
1 | OB(O)c1ccc(C(F)(F)F)s1 [N34] | no significant growth defect | blocked FP labeling of FphH | ≥ 50 | not further increased by addition of even 100 μM concentrations of N34 | most pronounced effects | > 200 | dose-dependently blocked labeling of rFphH | inhibited only by the FphH inhibitor N34 | no growth inhibition | both the fphE and fphH mutants grew slower than wild type | no significant growth defect | does not impact resistance or susceptibility profiles of the antibiotics |  |  |  |  |  | 
2 | COc1cc2c(cc1S(=O)(=O)F)C(=O)NCCC2 [X20] |  |  |  |  | significant inhibition of biofilm formation |  |  |  |  | minimal effect on planktonic growth |  |  | retains both its potency and selectivity towards the natively expressed FphB | dose-dependently blocked labeling of rFphB | 60 | 40 | did not show any off-target effects in mammalian cells | a single X20 adduct formed
